US20210292400A1, “METHODS FOR TREATING, PREVENTING AND DETECTING THE PROGNOSIS OF COLORECTAL CANCER” (priority 2018, published 2021)
Entries after “also recorded” stand apart in the source; their conditions may differ.

Columns and labels:
[1] = test system: HT29 cells; assay: Cell proliferation assay, HT29 cells; assay type: cell-based, human; settings: cells transfected with siRNA; compared to untreated cells; no Fn
Method: (§1) Full length ANXA1 was amplified by PCR using primers listed in Table 1 and cloned in to pcDNA™3.1 (+) Mammalian Expression Vector. Plasmid transfection was performed using lipofectamine 2000 (Invitrogen, CA) following the manufacturer instructions. Control siRNA, ANXA1-specific siRNA and CDH1-specific siRNA were purchased from Invitrogen (CA). The siRNA utilized in these experiments included: Negative control: Invitrogen Stealth RNAi siRNA negative control cat number 12935300; Annexin siRNA: Invitrogen stealth siRNA (cat # ANXA1HSS100502) sequence UAACCAUUAUGGCCUUAUGCAAGGC (SEQ ID NO: 1); and E-cadherin siRNA: Invitrogen stealth siRNA (cat # CDH1HSS101669) sequence UUAAUCUCCAGCCAGUUGGCAGUGU (SEQ ID NO: 2). Lipofectamine RNAi MAX (Invitrogen, CA) was used for the siRNA transfection following manufacturer instructions.
(§2) Cells were seeded in 24 well plates at 5×10^4 cells per well. Cells were untreated or incubated with bacteria at an MOI of 1000:1. Cell numbers were counted at indicated time points using a hemocytometer as previously described (Rubinstein et al. 2013). Each experiment was performed in triplicate and repeated at least three times.

[2] = test system: β-catenin in DLD1 cells; assay: Flow cytometry of β-catenin expression after F. nucleatum incubation, DLD1 cells; assay type: cell-based, human; settings: DLD1 cells transfected with siRNA, then Fn 12230 MOI approximately 20:1
Method: (§3) FIG. 3G are graphs of the results of flow cytometry analysis of β-catenin expression in 10C, HCT 116, and DLD1 cells following transfection with control siRNA (clear bars) or ANXA1-specific siRNA (solid bars) and subsequent incubation with F. nucleatum 12230 at MOI of approximately 20:1 for indicated time periods. The geometric means of cells treated with control siRNA at time 0 was designated as 1. Data are mean values±SD. *** p<0.001. The experiment was performed in duplicates or triplicates and repeated 1-3 times. **p<0.01, ***p<0.001 (two-way ANOVA).
(§4) Approximately a total of 2×10^5 cells were incubated with Fn or purified FadA in 35 mm dish at 37° C. for indicated time periods. After washing with PBS, the cells were incubated with enzyme-free cell dissociation buffer (Thermo Fisher Scientific) for 5 min at 37° C. followed by addition of 1 ml DMEM. The cells were collected and centrifuged at 500 g for 3 minutes. The cell pellet was fixed with 75% cold ethanol and kept at −20° C. The pellet was centrifuged again at 2500 g for 10 minutes and washed with phosphate citrate buffer (200 mM Na2HPO4, 100 mM citric acid, pH 7.4), followed by blocking with PBS containing 2% skim milk at room temperature for 1 hour. […] After washing the cells with PBS, the flow cytometric data were acquired by a BD LSR II flow cytometer and analyzed using Flow Jo software (Tree Star, San Carlos, Calif.).

[3] = test system: AA/C1/SB (SB) cells; assay: Cell proliferation assay, non-tumorigenic SB cells; assay type: cell-based, human; settings: cells transfected with siRNA; compared to untreated cells; no Fn
Method: as §1, §2

[4] = test system: AA/C1/SB/10C (10C) cells; assay: Cell proliferation assay, 10C cells; assay type: cell-based, human; settings: cells transfected with siRNA; compared to untreated cells; no Fn
Method: as §1, §2

[5] = test system: HCT116 cells; assay: Tumor xenograft of siRNA-treated HCT116 cells in nude mice; assay type: in vivo; settings: HCT116 cells treated with siRNA, injected subcutaneously and bilaterally; vs control siRNA; 7 days post injection
Method: FIG. 1H are graphs and images of xenografted tumor growth in nude mice following subcutaneous and bilateral inoculation of HCT116 cells transfected with control siRNA (left side) or ANXA1-specific siRNA (right side). The tumor volumes were measured after 7 days post injection (left panel, n=4). For each mouse, the tumor resulting from ANXA1 siRNA-treated cells was normalized to that arising from control siRNA-treated cells which was designated to 100%. The line represents the average. *p<0.05 (unpaired t-test). Representative tumors are shown on the right panel top, tumors arising from control siRNA treated cells; bottom, tumors arising from ANXA1-specific siRNA treated cells.
Four-week old nude mice were purchased from Taconic Biosciences (NY, USA). An inoculum of 1×10^7 HCT 116 cells treated with either control or ANXA1-specific siRNA were injected subcutaneously and bilaterally into the nude mice, with control cells injected on the left side and ANXA1-knockdown cells on the right side. On day 7-9 post-injection, the tumor length and width were measured using calipers and tumor volumes were calculated using the following formula: Volume=(width)^2×length/2.

[6] = test system: β-catenin in DLD1 cells; assay: β-catenin nucleus translocation, DLD1 cells; assay type: cell-based, human; settings: Annexin A1 knocked down by siRNA
Method: (§5) An aliquot of 1×10^3-1×10^5 cells were seeded into Nunc Lab-Tek II Chamber Slide System (Thermo Fisher Scientific) in 400 μl and allowed to grow for 2-5 days till reaching desired confluency. Following washes with DMEM, the cells were incubated with CFSE-labeled Fn or Alexa Fluor™488-conjugated FadAc, mFadA, and BSA (300 μg/ml) for indicated time periods. Following washes of ten times with DMEM, the cells were fixed in PBS containing 4% paraformaldehyde at room temperature for 15 minutes, followed by neutralization in PBS containing 1% glycine at room temperature for 15 minutes. After blocking with PBS containing 2% skim milk and 0.3% Triton X-100 for 1 hour at 4° C., the cells were incubated overnight at 4° C. with goat anti-human E-cadherin polyclonal antibodies (1:400 dilution, R&D Systems, MN) and rabbit anti-AnnexinA1 polyclonal antibodies (1:400 dilution, Invitrogen) or rabbit anti-β-catenin polyclonal IgG (1:400 dilution, Invitrogen) in blocking solution. After washing three times with PBS containing 0.3% Triton X-100, the cells were incubated with Cy3-conjugated donkey anti-goat IgG (1:1000 dilution, Jackson ImmunoResearch, West Grove, Pa.) and Alexa Fluor®680-conjugated donkey anti-rabbit IgG (1:1000 dilution, Invitrogen), washed, and covered in mounting medium containing DAPI (Vector Laboratories, CA, USA). […]

[7] = test system: HCT116 cells; assay: Cell proliferation assay, HCT116 cells; assay type: cell-based, human; settings: cells transfected with siRNA; compared to untreated cells; no Fn
Method: as §1
Annexin antibodies utilized in these experiments included: Annexin A1 (Thermo Fisher Scientific, cat #71-3400); Annexin A2 (Thermo Fisher Scientific, cat # PA5-27566); Annexin V (Thermo Fisher Scientific, cat # PA5-27872); Annexin A6 (Thermo Fisher Scientific, cat. #720161); and Annexin All (Thermo Fisher Scientific, cat # PA5-68093).
Cells were seeded in 24 well plates at 5×10^4 cells per well. […] Cell numbers were counted at indicated time points using a hemocytometer as previously described (Rubinstein et al. 2013). […]

[8] = test system: DLD1 cells; assay: Cell proliferation assay, DLD1 cells; assay type: cell-based, human; settings: cells transfected with siRNA; compared to untreated cells; no Fn
Method: as §1, §2

[9] = test system: SW480 cells; assay: Cell proliferation assay, SW480 cells; assay type: cell-based, human; settings: cells transfected with siRNA; compared to untreated cells; no Fn
Method: as §1, §2

[10] = test system: RKO cells; assay: Cell proliferation assay, RKO cells; assay type: cell-based, human; settings: cells transfected with siRNA; RKO expressed the least Annexin A1
Method: as §1, §2

[11] = test system: β-catenin in 10C cells; assay: Immuno-staining of β-catenin nuclear translocation, 10C cells; assay type: cell-based, human; settings: 10C cells transfected with siRNA, then Fn 12230 MOI about 100:1 for 2 hours
Method: The images were captured with confocal microscope at 800× magnification. −, no bacteria added. Note the increased expression of β-catenin and its nucleus translocation in response to Fn in control siRNA-treated cells, compared to ANXA1 siRNA-treated cells.
as §5, with “solution.” for “solution. After washing three times with PBS containing 0.3% Triton X-100, the cells were incubated with Cy3-conjugated donkey anti-goat IgG (1:1000 dilution, Jackson ImmunoResearch, West Grove, Pa.) and Alexa Fluor®680-conjugated donkey anti-rabbit IgG (1:1000 dilution, Invitrogen), washed, and covered in mounting medium containing DAPI (Vector Laboratories, CA, USA).”

[12] = test system: β-catenin in 10C cells; assay: Flow cytometry of β-catenin expression after F. nucleatum incubation, 10C cells; assay type: cell-based, human; settings: 10C cells transfected with siRNA, then Fn 12230 MOI approximately 20:1
Method: as §3, §4

[13] = test system: β-catenin in HCT116 cells; assay: Flow cytometry of β-catenin expression after F. nucleatum incubation, HCT116 cells; assay type: cell-based, human; settings: HCT116 cells transfected with siRNA, then Fn 12230 MOI approximately 20:1
Method: as §3, §4

[14] = test system: F. nucleatum 12230 attachment and invasion to 10C cells; assay: Cell culture attachment and invasion assay of F. nucleatum 12230 to 10C cells; assay type: cell-based, human; settings: 10C transfected with siRNA
Method: Fn attachment and invasion to the untreated SB cells were designated as 100%, respectively; all other values were expressed as relative to those obtained with untreated SB. Data are mean values±SEM. *p<0.05, ** p<0.01 and *** p<0.001 (one-way ANOVA).
Data are mean values±SD. The experiment was performed in triplicates and repeated twice. *p<0.05 (student's t-test).
The assay was performed as previously described (Han et al. 2000). Briefly, host cells were seeded in 24 well plates and grown until 80% confluency. Bacteria were added at an MOI 50:1 and incubated for 1 hour at 37° C. in 5% CO2. Following washes with PBS and lysis with water for 20 minutes, serial dilutions of the lysates were plated onto blood agar plates to enumerate the viable bacterial counts. For the invasion assay, bacteria were incubated with the host cells for 3 hours followed by treatment with 300 μg/ml gentamicin and 200 μg/ml metronidazole for 1 hour at 37° C. Following washes with PBS, the cells were lysed with water and intracellular bacterial counts were determined as described above. The levels of attachment and invasion were expressed as the percentage of bacteria recovered following cell lysis relative to the total number of bacteria initially added. Each experiment was performed in triplicate and repeated at least three times.

ANXA1-specific siRNA: Invitrogen stealth siRNA cat # ANXA1HSS100502, sequence UAACCAUUAUGGCCUUAUGCAAGGC (SEQ ID NO: 1) (UAACCAUUAUGGCCUUAUGCAAGGC; commercial Invitrogen Stealth siRNA, chemistry not given here)
growth of HT29 cells [1]: inhibited the growth
F. nucleatum-mediated activation of β-catenin expression [2]: abolished
growth of non-tumorigenic SB cells [3]: without affecting
growth of 10C cells [4]: inhibited the growth
xenografted tumor growth (tumor volume) [5]: significantly attenuated tumor growth
nucleus translocation of β-catenin [6]: abolished
growth of HCT116 cells [7]: inhibited the growth
growth of DLD1 cells [8]: inhibited the growth
growth of SW480 cells [9]: inhibited the growth
growth of RKO cells [10]: without affecting
nuclear translocation of β-catenin [11]: abolished; also recorded: inhibited
F. nucleatum-mediated activation of β-catenin expression [12]: abolished
F. nucleatum-mediated activation of β-catenin expression [13]: abolished
Fn binding (attachment) to 10C cells ([14]; Fn 12230 MOI 50:1, 1 hour): effectively reduced
Fn invasion of 10C cells ([14]; Fn 12230 MOI 50:1, 3 hours): effectively reduced
